# Results: ChEMBL document CHEMBL1201862, “PubChem BioAssay data set” (2004)
#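 Exposure lasted 48 hours, with cells grown in 96-well plates and compounds tested at five concentrations. GI50: concentration for 50% inhibition of growth.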 Active and inactive are the calls of the source. Rule as the data show it: active = GI50 up to about 1.1 µM and inactive = higher.
# Tests used:
# Experiment in all cases: NCI tumour cell line growth inhibition, 48 h
# SF-539 = system: SF-539
# OVCAR-8 = system: OVCAR-8
# CAKI-1 = system: CAKI-1
# U-251 = system: U-251
# HL-60 = system: HL-60
# A549 = system: A549
# SNB-75 = system: SNB-75
# NCI-H226 = system: NCI-H226
# T47D = system: T47D
# SW-620 = system: SW-620
# HOP-92 = system: HOP-92
# RXF 393 = system: RXF 393
# BT-549 = system: BT-549
# K562 = system: K562
# MDA-MB-435 = system: MDA-MB-435
# SNB-19 = system: SNB-19
# NCI-H23 = system: NCI-H23
# MDA-MB-231 = system: MDA-MB-231
# SF-268 = system: SF-268
# Hs-578T = system: Hs-578T
SMILES,GI50 (SF-539),GI50 (OVCAR-8),GI50 (CAKI-1),GI50 (U-251),GI50 (HL-60),GI50 (A549),GI50 (SNB-75),GI50 (NCI-H226),GI50 (T47D),GI50 (SW-620),GI50 (HOP-92),GI50 (RXF 393),GI50 (BT-549),GI50 (K562),GI50 (MDA-MB-435),GI50 (SNB-19),GI50 (NCI-H23),GI50 (MDA-MB-231),GI50 (SF-268),GI50 (Hs-578T)
CN(C)c1ccc(/C=N/c2ccc(-c3nc4ccccc4s3)cc2)cc1,52.8 µM (inactive),39.5 µM (inactive),28.6 µM (inactive),29.2 µM (inactive),0.0408 µM (active),39.7 µM (inactive),26.3 µM (inactive),32 µM (inactive),20 µM (inactive),22.9 µM (inactive),22.4 µM (inactive),17.9 µM (inactive),35.4 µM (inactive),28.8 µM (inactive),33.8 µM (inactive),57.9 µM (inactive),29.9 µM (inactive),,,
CC1(C)O[C@@H]([C@H](O)CO)[C@H](O)[C@@H](C2SCCCS2)O1,> 100 µM (inactive),> 100 µM (inactive),> 100 µM (inactive),> 100 µM (inactive),,> 100 µM (inactive),> 100 µM (inactive),> 100 µM (inactive),> 100 µM (inactive),> 100 µM (inactive),34.4 µM (inactive),> 100 µM (inactive),> 100 µM (inactive),,> 100 µM (inactive),> 100 µM (inactive),> 100 µM (inactive),> 100 µM (inactive),> 100 µM (inactive),
CCOP(=O)(OCC)/C(C#N)=C/c1cnc(C)[nH]1,> 100 µM (inactive),> 100 µM (inactive),> 100 µM (inactive),> 100 µM (inactive),> 100 µM (inactive),> 100 µM (inactive),> 100 µM (inactive),> 100 µM (inactive),,> 100 µM (inactive),> 100 µM (inactive),> 100 µM (inactive),> 100 µM (inactive),> 100 µM (inactive),> 100 µM (inactive),> 100 µM (inactive),> 100 µM (inactive),> 100 µM (inactive),> 100 µM (inactive),> 100 µM (inactive)
COC(=O)/N=[N+](\[O-])C(c1ccc(Cl)cc1)c1ccc(Cl)cc1,65.3 µM (inactive),36.3 µM (inactive),10.1 µM (inactive),39.2 µM (inactive),20.7 µM (inactive),40.1 µM (inactive),27.9 µM (inactive),21.9 µM (inactive),20.8 µM (inactive),48.6 µM (inactive),,27.2 µM (inactive),53.8 µM (inactive),49.1 µM (inactive),38.1 µM (inactive),50.4 µM (inactive),32 µM (inactive),1.75 µM (inactive),69.5 µM (inactive),36.4 µM (inactive)
CSc1nc(=O)cnn1C,,> 100 µM (inactive),> 100 µM (inactive),> 100 µM (inactive),,> 100 µM (inactive),> 100 µM (inactive),> 100 µM (inactive),> 100 µM (inactive),> 100 µM (inactive),,> 100 µM (inactive),> 100 µM (inactive),> 100 µM (inactive),> 100 µM (inactive),> 100 µM (inactive),> 100 µM (inactive),> 100 µM (inactive),> 100 µM (inactive),> 100 µM (inactive)
C=CCOc1ccc(C2C(C(=O)OC)C(=O)CC(O)(c3ccccc3)C2C(=O)OC)cc1OC (centres undefined),,19.7 µM (inactive),32.3 µM (inactive),32 µM (inactive),31.6 µM (inactive),34.4 µM (inactive),26.9 µM (inactive),22.4 µM (inactive),20.8 µM (inactive),> 100 µM (inactive),18 µM (inactive),15.9 µM (inactive),30.6 µM (inactive),51.2 µM (inactive),41.1 µM (inactive),> 100 µM (inactive),31.8 µM (inactive),18.4 µM (inactive),20.5 µM (inactive),
Cc1ccc(S(=O)(=O)N2CC(CCN)c3ccccc32)cc1 (centres undefined),3.17 µM (inactive),3.59 µM (inactive),6.38 µM (inactive),3.72 µM (inactive),> 100 µM (inactive),9.51 µM (inactive),5.46 µM (inactive),2.45 µM (inactive),,4.34 µM (inactive),4.19 µM (inactive),2.74 µM (inactive),5.69 µM (inactive),4.35 µM (inactive),1.53 µM (inactive),4.97 µM (inactive),6.38 µM (inactive),4.1 µM (inactive),5.31 µM (inactive),5.62 µM (inactive)
O=c1[nH]c(=S)c2cc3c(=S)[nH]c(=O)n(CCO)c3nc2n1CCO,> 100 µM (inactive),> 100 µM (inactive),> 100 µM (inactive),> 100 µM (inactive),,> 100 µM (inactive),> 100 µM (inactive),> 100 µM (inactive),> 100 µM (inactive),> 100 µM (inactive),> 100 µM (inactive),> 100 µM (inactive),> 100 µM (inactive),> 100 µM (inactive),> 100 µM (inactive),> 100 µM (inactive),> 100 µM (inactive),> 100 µM (inactive),> 100 µM (inactive),
